Read-outs that look alike come from different tables or passages of the source.
Tests used:
AT4 receptor [1] = molecular target: T1, AT4 receptor (Bos taurus, UniProt F1N1Q8); assay: 125I-AIV binding and competition, coronary venular endothelial cell (CVEC) membranes; design: species or system bovine; conditions: for Ki: read-out: Ki
T1 sequence (F1N1Q8 1-1022): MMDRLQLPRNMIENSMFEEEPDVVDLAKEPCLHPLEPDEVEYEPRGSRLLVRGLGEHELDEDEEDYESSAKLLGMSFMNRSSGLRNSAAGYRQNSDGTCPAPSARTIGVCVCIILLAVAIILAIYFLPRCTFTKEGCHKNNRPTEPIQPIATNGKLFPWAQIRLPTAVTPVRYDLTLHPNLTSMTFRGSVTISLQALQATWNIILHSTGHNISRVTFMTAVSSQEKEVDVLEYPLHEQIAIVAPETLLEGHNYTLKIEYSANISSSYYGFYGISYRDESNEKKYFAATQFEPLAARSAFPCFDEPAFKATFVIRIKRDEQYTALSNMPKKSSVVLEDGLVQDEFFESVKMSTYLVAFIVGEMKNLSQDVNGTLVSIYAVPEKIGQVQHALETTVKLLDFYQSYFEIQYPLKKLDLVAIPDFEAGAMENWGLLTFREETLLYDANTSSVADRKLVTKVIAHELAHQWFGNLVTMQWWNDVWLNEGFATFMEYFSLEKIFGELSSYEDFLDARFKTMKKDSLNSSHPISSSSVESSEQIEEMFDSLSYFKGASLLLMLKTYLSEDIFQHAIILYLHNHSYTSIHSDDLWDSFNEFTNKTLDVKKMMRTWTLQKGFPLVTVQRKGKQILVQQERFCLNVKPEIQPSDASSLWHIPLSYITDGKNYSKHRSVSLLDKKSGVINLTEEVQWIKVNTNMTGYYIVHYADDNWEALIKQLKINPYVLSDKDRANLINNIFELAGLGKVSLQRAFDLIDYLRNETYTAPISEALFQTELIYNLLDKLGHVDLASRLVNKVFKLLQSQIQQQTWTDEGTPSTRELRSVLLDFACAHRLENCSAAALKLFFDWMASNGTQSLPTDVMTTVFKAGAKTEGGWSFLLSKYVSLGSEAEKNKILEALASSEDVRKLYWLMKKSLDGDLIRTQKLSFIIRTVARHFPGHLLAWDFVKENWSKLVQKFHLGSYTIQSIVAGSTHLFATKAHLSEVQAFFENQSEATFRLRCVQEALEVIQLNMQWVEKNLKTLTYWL

[2] = molecular target: T2, AT1 receptor (AII receptor) (Bos taurus, UniProt P25104); type: binding, bovine; conditions: for Bmax: equilibrium binding
T2 construct: from tissue; host or cells: bovine adrenal cortex membranes
T2 sequence (P25104 1-359): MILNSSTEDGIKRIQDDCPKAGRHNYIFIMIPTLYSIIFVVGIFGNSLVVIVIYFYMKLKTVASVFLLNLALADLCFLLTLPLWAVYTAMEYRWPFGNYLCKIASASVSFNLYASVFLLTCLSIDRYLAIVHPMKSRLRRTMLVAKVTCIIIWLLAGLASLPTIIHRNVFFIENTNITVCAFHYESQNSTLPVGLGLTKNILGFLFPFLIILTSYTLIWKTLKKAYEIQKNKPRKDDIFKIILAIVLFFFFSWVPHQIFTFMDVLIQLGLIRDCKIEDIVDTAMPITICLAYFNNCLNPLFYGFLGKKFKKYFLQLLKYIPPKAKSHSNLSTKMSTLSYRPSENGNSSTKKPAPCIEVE

rat kidney = assay: Renal cortical blood flow (laser doppler) and arterial pressure after infusion into the renal artery; type: in vivo
AT4 receptor [3] = molecular target: T3, AT4 receptor (Oryctolagus cuniculus, UniProt G1SFU4); assay: 125I-AIV binding and competition, rabbit heart P2 membranes; conditions: competition of 0.5 nM 125I-AIV, 120 min, 37° C.
T3 sequence (G1SFU4 1-1025): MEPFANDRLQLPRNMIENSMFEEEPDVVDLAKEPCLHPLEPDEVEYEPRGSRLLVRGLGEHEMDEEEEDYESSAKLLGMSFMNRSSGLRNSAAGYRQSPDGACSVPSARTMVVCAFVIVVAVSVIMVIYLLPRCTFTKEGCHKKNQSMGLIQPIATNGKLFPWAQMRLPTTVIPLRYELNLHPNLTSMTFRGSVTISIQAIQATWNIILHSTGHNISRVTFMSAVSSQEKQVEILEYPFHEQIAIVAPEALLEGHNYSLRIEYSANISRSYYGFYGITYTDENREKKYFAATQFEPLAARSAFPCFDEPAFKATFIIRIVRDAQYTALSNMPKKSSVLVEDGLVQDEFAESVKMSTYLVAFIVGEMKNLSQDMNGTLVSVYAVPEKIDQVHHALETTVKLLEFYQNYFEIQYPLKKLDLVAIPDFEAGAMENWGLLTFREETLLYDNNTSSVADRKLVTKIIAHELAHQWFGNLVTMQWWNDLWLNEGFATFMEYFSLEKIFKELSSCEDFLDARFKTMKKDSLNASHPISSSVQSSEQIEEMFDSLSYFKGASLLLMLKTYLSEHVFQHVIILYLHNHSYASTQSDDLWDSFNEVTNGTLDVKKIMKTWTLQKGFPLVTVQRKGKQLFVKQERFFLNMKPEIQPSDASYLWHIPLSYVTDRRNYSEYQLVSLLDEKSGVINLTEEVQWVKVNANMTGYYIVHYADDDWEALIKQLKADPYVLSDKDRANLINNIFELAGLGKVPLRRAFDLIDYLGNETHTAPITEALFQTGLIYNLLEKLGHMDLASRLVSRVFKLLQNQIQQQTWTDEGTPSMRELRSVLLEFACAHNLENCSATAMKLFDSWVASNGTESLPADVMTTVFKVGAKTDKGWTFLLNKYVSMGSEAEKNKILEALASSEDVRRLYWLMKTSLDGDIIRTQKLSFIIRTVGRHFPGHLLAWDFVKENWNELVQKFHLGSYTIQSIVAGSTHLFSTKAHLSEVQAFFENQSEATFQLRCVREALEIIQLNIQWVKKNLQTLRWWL

AT4 receptor [4] = molecular target: T1, AT4 receptor; assay: 125I-AIV binding and competition, bovine adrenal cortical membranes
AT4 receptor [5] = molecular target: T4, AT4 receptor (Cavia porcellus, UniProt H0VNM7); assay: 125I-AIV binding and competition, guinea pig hippocampus membranes; conditions: competition of 0.6 nM 125I-AIV
T4 sequence (H0VNM7 1-1025): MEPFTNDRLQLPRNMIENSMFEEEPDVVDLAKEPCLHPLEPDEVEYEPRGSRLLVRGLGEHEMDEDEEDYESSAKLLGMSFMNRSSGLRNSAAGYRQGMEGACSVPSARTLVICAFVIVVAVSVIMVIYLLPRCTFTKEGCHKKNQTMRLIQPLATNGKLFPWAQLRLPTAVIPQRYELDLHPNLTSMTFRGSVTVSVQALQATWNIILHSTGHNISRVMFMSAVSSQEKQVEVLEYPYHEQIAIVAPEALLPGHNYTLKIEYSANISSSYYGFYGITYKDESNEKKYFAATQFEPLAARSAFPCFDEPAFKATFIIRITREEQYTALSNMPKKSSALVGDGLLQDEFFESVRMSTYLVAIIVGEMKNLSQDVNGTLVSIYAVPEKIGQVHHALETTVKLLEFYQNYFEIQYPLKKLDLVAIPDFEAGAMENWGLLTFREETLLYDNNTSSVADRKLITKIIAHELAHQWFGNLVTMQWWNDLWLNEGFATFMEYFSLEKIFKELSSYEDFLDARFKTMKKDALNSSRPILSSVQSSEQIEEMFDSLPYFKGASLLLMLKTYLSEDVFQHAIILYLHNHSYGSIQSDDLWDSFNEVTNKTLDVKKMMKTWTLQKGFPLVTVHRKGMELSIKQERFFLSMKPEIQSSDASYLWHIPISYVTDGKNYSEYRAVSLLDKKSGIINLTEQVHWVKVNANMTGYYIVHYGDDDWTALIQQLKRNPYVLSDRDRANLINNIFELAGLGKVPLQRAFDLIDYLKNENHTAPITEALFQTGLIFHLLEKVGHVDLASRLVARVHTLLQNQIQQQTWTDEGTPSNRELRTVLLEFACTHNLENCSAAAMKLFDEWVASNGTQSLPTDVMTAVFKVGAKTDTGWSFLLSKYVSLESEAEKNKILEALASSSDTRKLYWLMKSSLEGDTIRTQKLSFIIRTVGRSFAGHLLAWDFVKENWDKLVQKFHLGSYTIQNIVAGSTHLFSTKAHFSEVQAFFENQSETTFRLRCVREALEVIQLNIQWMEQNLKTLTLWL

[6] = in vivo; cited from earlier work
[7] = Stability of angiotensin peptides in binding buffer (reverse phase HPLC); type: physicochemical; conditions: 4 h at 37° C.
Protocol: Binding studies were carried out in a buffer (below) containing an extensive cocktail of inhibitors that was designed to minimize metabolism of both the receptor and the test ligand, i.e., the buffer contained 5 mM EDTA, 0.2% BSA, […] Bestatin, 50 μM Plummer's inhibitor, and 100 μM PMSF.

[8] = arterial and venous blood in man; cited from earlier work
AT4 receptor [9] = molecular target: T1, AT4 receptor; assay: 125I-AIV binding and competition, solubilized bovine adrenal cortical receptor
[10] = read-out: 125I-AIV Binding (Ki), competition

## SRVYIHPI [Sar1, Ile8 -AII]
AT4 receptor [1]
  increase in Ki (decrease in affinity) compared with AIV: 200 fold
AT4 receptor [1]; competition of 0.5 nM 125I-AIV
  Ki: 261 ± 89.1 nM
[2]
  Hill Coeff.: 1.00 ± .03
[2]; listed as 125I Sar1, Ile8 -Ang II
  Bmax: 1.03 ± .26 pmol/mg prot.
[2]; listed as 125I-Sar1,Ile8 -AII
  Bmax: 1.03±0.26 pmol/mg prot.
[2]; read-out: Kd (calculated from kinetic constants)
  Kd: 0.225 nM
Rat kidney; 1 nmol/min, 10 min preinfusion
  average change in AIV-induced blood flow with preinfusion: < 3%
Rat kidney; rat, in vivo
  effect of preinfusion on blood flow response to another ligand: completely blocked the AII effect while having no effect on AIV
AT4 receptor [3]
  Ki: > 1000 nM
AT4 receptor [4]; [10]
  Ki: > 1000 nM
AT4 receptor [5]
  Ki: > 1000 nM

## Asp1 Arg2 Val3 Tyr4 Ile5 His6 Pro7 Phe8His9 Leu10 (DRVYIHPFHL) [AI]
[6]
  metabolized during transit through the kidney: 72-76%
[7]
  hydrolysis in binding buffer: less than 10%

## CGP 42112A
AT4 receptor [1]; unit inferred
  Ki: > 100000 nM
[2]; competition
  Ki: > 100000 nM
AT4 receptor [3]
  Ki: > 1000 nM
AT4 receptor [4]; [10]
  Ki: > 100000 nM
AT4 receptor [5]
  Ki: > 100000 nM

## CC[C@H](C)[C@H](NC(=O)[C@H](Cc1ccc(O)cc1)NC(=O)[C@@H](NC(=O)[C@@H](N)CCCNC(=N)N)C(C)C)C(=O)N[C@@H](Cc1c[nH]cn1)C(=O)N1CCC[C@H]1C(=O)N[C@@H](Cc1ccccc1)C(=O)O [AIII, Arg1 Val2 Tyr3 Ile4 His5 Pro6 Phe7, reference compound]
AT4 receptor [1]; competition of 0.5 nM 125I-AIV
  Ki: 23.3 ± 3.4 nM
[6]
  metabolized during transit through the kidney: 89%
[8]
  half-lives: 2.0 min
AT4 receptor [9]
  fold less active than AIV ligand: approximately 29 fold
  times less effective than AIV in competing binding: approximately 100 times
[7]
  hydrolysis in binding buffer: less than 10%
AT4 receptor [4]; density-gradient-purified heat-treated membranes
  fold less active than AIV ligand: about 52 fold
AT4 receptor [4]; density-gradient-purified heat-treated membranes, read-out: apparent affinity (Ki)
  Ki: 29.3 nM
AT4 receptor [4]; [10]
  Ki: > 14.5 nM
